Where two headings read alike, the source gives them in different places.
Key:
in vitro = type: cell-based, human; details: human
Description: (§1) Cytotoxicity of the analyzed compounds was determined by the Neutral Red dye uptake assay. A total of 1.35 × 10^5 HFFs per well were seeded in 96-well plates 1 d prior to analysis, cultivated overnight until cells were confluent and then incubated with compounds for 7 days. The assay was performed as described previously using 40 μg/mL Neutral Red (Sigma Aldrich). The quantity of dye incorporation was determined using the Victor X4 microplate reader (PerkinElmer, Waltham, MA, USA) by fluorescence measurement at 560/630 nm for excitation/emission, respectively. To assess antiviral activity of compounds, HFFs seeded in 96-well plates (1.35 × 10^5 HFFs per well) were infected with HCMV AD169-GFP or TB40-IE2-YFP to reach 25–50% infected cells at 7 days post-infection (d p.i.). After incubation with the infectious inoculum for 1.5 h at 37 °C, compounds were added in serial dilutions. At 7 d p.i., cells were fixed for 10 min at room temperature using 10% formalin. Finally, cells were washed once with PBS followed by automated fluorescence quantitation.

HCMV AD169-GFP = experiment: microbe, parasite or virus in culture; type: cell-based, human cytomegalovirus (HCMV); details: 7 d p.i.
Description: as §1
Seeking for a novel group of potential antiviral agents, small molecules with covalent protein-binding activity were investigated. These small molecules, originally developed as kinase inhibitors, carry a so-called warhead moiety as an important functional group, such as the prototype afatinib (Figure 1A, red circle). In this study, a series of newly generated warhead compounds (most of which are the property of B.K./Lead Discovery Center, Dortmund, Germany) were used for an evaluation of putative antiviral and core NEC-inhibitory properties. In a first step, the antiviral activity of warheads was analyzed against HCMV TB40-IE2-YFP (Figure 1B) and AD169-GFP (Figure 1C). To this end, HFFs were infected with either of the two viral strains before the GFP or YFP reporter signals were measured at 7 d p.i. (in parallel, putative compound cytotoxicity was determined by Neutral Red assay). The HCMVs AD169-GFP and TB40-IE2-YFP, based on BAC-derived recombinants of the laboratory strains AD169 and TB40, respectively, were both propagated on HFFs, and the produced stocks were then used as two reporter viruses for the assessement of antiviral drug activity. While strain AD169 is mainly restricted in its tropism to fibroblasts, TB40 tropism can be extended to fibroblasts and epithelial and endothelial cells. Here, the use of two strains was intended to illustrate the assumption that antiviral activity of these warhead compounds may be directed to conserved viral target proteins, thus pointing out a minor impact of strains.
(A) Chemical structure of a clinically approved prototype of covalently binding warhead inhibitors, […], afatinib/Gilotrif®. The red circle identifies a functionally active α-, β-unsaturated carbonyl group. (B) At 7 d p.i., compounds were analyzed for their cytotoxicity (orange) and antiviral activity (blue) during HCMV infection, using TB40-IE2-YFP as a reporter virus. Cell viability was assessed through Neutral Red staining of uninfected cells. Measurements were performed in quadruplicate (YFP fluorometry) or triplicate (Neutral Red assay), and standard deviations of mean values are given; EC50, CC50 and SI values are indicated accordingly. (C) In a parallel series of analyses, HCMV AD169-GFP was used as another reporter virus representing a second viral strain. […] HCMV AD169-GFP-infected HFFs were treated with 0.1 µM to 50 µM of the compounds (in parallel Neutral Red assay, 0.1 µM to 100 µM), before the signal assessments were performed at 7 d p.i.

[1] = tested on: HCMV pUL53 nuclear rim localization; experiment: Confocal imaging of pUL53 localization in HCMV AD169-infected HFFs; type: cell-based
Description: HFF or HFF-UL50 cells, either Dox-induced or uninduced, were seeded in 6-well plates with a density of 2 × 10^5 cells per well, grown on coverslips and infected with HCMV AD169 or AD169 ∆UL50-ΣUL53. For infection experiments with the recombinant virus, different Shield-1 and Dox conditions were analyzed. Antivirals were added post-infection as described for the experiments. For transfection experiments, HeLa cells were seeded on coverslips in 6-well plates with a density of 3.25 × 10^5 cells per well for cotransfection with the indicated NEC expression plasmids (HSV-1 HA-UL34 + Flag-UL31, HCMV pUL50-HA + pUL53-Flag and EBV HA-BFRF1 + Flag-BFLF2). At indicated time points after virus infection, or 3 days post-transfection, cells were fixed, applied for IF staining as described previously and analyzed using a TCS SP5 confocal laser-scanning microscope with Leica LAS AF software (Leica Microsystems, Wetzlar, Germany). […] The device features a Leica photomultiplier tube (PMT) and a hybrid detector (HyD). Images were further processed using Photoshop CS5 (Adobe Inc., San José, CA, USA). Primary and secondary antibodies used for staining were mAb-UL53.01 (kindly provided by S. Jonjic and T. Lenac Rovis, Rijeka, Croatia), mAb-lamin A/C (ab108595, Abcam, Cambridge, UK), mAb-HA (Clone 7, H9658, Sigma-Aldrich, St. Louis, MO, USA), pAb-Flag (F7425, Sigma-Aldrich, St. Louis, MO, USA), anti-mouse Alexa 555 (A21422, Thermo Fisher Scientific, Waltham, MA, USA) and anti-rabbit Alexa 488 (A11034, Thermo Fisher Scientific, Waltham, MA, USA). Microscopic counting was performed for quantitation of colocalization patterns of two different proteins, as achieved by counting 50 cells per biological triplicate.

HFFs = experiment: in vitro; type: cell-based, human
Description: as §1

HCMV TB40-IE2-YFP = experiment: microbe, parasite or virus in culture; type: cell-based, human cytomegalovirus (HCMV)
Description: Cytotoxicity of the analyzed compounds was determined by the Neutral Red dye uptake assay. A total of 1.35 × 10^5 HFFs per well were seeded in 96-well plates 1 d prior to analysis, cultivated overnight until cells were confluent and then incubated with compounds for 7 days. The assay was performed as described previously using 40 μg/mL Neutral Red (Sigma Aldrich). The quantity of dye incorporation was determined using the Victor X4 microplate reader (PerkinElmer, Waltham, MA, USA) by fluorescence measurement at 560/630 nm for excitation/emission, respectively. […] Finally, cells were washed once with PBS followed by automated fluorescence quantitation.
Seeking for a novel group of potential antiviral agents, small molecules with covalent protein-binding activity were investigated. […] In a first step, the antiviral activity of warheads was analyzed against HCMV TB40-IE2-YFP (Figure 1B) and AD169-GFP (Figure 1C). To this end, HFFs were infected with either of the two viral strains before the GFP or YFP reporter signals were measured at 7 d p.i. (in parallel, putative compound cytotoxicity was determined by Neutral Red assay). […]
(A) Chemical structure of a clinically approved prototype of covalently binding warhead inhibitors, LDC580, afatinib/Gilotrif®. […] Cell viability was assessed through Neutral Red staining of uninfected cells. […]

[2] = tested on: HFF-UL50, HFFs, MRC-5 and 293T cells; experiment: Neutral Red cytotoxicity of Shield-1 on four cell types; details: Shield-1 0.04–10 µM, 4 (293T) or 7 d post-treatment
Description: Analysis of putative cytotoxicity of the synthetic ligand Shield-1 on different cell
types. Four different types of cells (recombinant complementing cells HFF-UL50, primary HFFs and
and MRC-5 cells, and immortalized 293T) were treated with various concentrations of Shield-1
(0.04–10 µM as shown on the right). At 4 (293T) or 7 d post-treatment, cell viability was assessed by
Neutral Red staining. Data are presented as mean values ± SD over three biological replicates.
Cytotoxic staurosporine (STP, 1 µM) served as a positive control, DMSO-treated cells as a negative

[3] = target: T1, pUL50–pUL53 interaction (LgBiT::UL53-Flag + SmBiT::UL50-HA) (Human cytomegalovirus, UniProt P16791); type: cell-based; details: 293T cells, 5×, 1× or 0.2× anti-HCMV EC50 levels, full-length LgBiT::UL53-Flag
T1 construct: expressed in transfected cells; host or cells: 293T

[4] = target: T2, pUL50–pUL53 interaction (LgBiT::UL53(1–87)-Flag + SmBiT::UL50-HA) (Human cytomegalovirus, UniProt P16791); type: cell-based; details: 293T cells, 5×, 1× or 0.2× anti-HCMV EC50 levels, truncated LgBiT::UL53(1–87)-Flag
T2 construct: expressed in transfected cells; host or cells: 293T

[5] = Human betaherpesvirus 5, AD169, 168 h, clinically relevant warheads, 0.1 µM to 50 µM, AD169-GFP-infected HFFs
[6] = HFFs infected with HCMV AD169 (MOI 0.1), 5 d p.i.

T2 sequence (P16791 whole entry, the tested form may be a part): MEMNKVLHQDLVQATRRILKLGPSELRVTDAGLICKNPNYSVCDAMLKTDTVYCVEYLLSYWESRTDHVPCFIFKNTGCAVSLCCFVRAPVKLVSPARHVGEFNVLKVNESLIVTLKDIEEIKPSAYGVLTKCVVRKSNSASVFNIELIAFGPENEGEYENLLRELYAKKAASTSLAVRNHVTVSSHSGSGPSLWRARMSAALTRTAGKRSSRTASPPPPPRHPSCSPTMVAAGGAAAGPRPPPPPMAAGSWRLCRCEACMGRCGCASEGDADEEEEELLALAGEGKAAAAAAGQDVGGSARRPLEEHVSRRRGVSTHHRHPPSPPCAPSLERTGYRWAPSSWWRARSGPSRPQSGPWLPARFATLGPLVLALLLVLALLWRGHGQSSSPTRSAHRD
T1 sequence (P16791 whole entry): as the sequence (P16791 whole entry, the tested form may be a part) above

COC(=O)[C@]12CCC(C)(C)C[C@H]1[C@H]1C(=O)C=C3[C@@]4(C)C=C(C#N)C(=O)C(C)(C)[C@@H]4CC[C@@]3(C)[C@]1(C)CC2 [CDDO-Me, 2-cyano-3,12-dioxooleana-1,9(11)-dien-28-oic acid methyl ester]
CC50 at 7 days (in vitro): > 0.8 µM | antiviral activity (in words) (HCMV AD169-GFP; AD169-GFP-infected HFFs, 0.1 µM to 50 µM): no notable antiviral activity | EC50 (HCMV AD169-GFP; [5]): < 0.4 µM

CCOc1cc(/C=c2\sc3n(c2=O)C(c2ccccc2OC)C(C(C)=O)=C(C)N=3)ccc1O (stereo not shown) [LDC492]
cells with partial or predominant dot-like localization of pUL53 within the nucleoplasm ([1]; HCMV AD169 MOI 0.1, 5 d p.i., concentrations of partial-grade antiviral activity, 50 cells counted per biological triplicate): more than 50% | CC50 (HFFs): > 10 µM | EC50 (HCMV AD169-GFP; HFFs infected with HCMV AD169-GFP, investigational LDC warheads, read-out: EC50): 8.9 ± 6.6 µM | EC50 (HCMV TB40-IE2-YFP; HFFs infected with HCMV TB40-IE2-YFP, 7 d p.i., YFP fluorometry, read-out: EC50): > 10 µM

CN(C)C/C=C/C(=O)Nc1cc2c(Nc3ccc(F)c(Cl)c3)ncnc2cc1O[C@H]1CCOC1 [LDC580, afatinib]
pUL53 localization (in words) [1, 6]: no comparable effect | CC50 at 7 days (in vitro; CC50): > 10 µM | CC50 (HFFs; human, 7 days): ~9 µM | EC50 (HCMV AD169-GFP; Human betaherpesvirus 5, AD169, 168 h, HFFs infected with HCMV AD169-GFP, investigational LDC warheads): 0.6 µM | EC50 (HCMV TB40-IE2-YFP; Human betaherpesvirus 5, 168 h): 0.8 µM

CC(C)Nc1nc2cc(Cl)c(Cl)cc2n1[C@H]1O[C@@H](CO)[C@H](O)[C@@H]1O [MBV, maribavir]
pUL53 localization (in words) [1, 6]: predominant dot-like structures | intranucleoplasmic coaggregation of lamin A/C (in words) ([1]; HFFs infected with HCMV AD169 (MOI 0.1), 5 d p.i., called preliminary): also visible

CC[C@H](C(=O)N1CCCC[C@H]1C(=O)O[C@H](CCc1ccc(OC)c(OC)c1)c1cccc(OCCN2CCOCC2)c1)c1cc(OC)c(OC)c(OC)c1 [Shield-1]
cytotoxic potential (in words) [2]: low cytotoxic potential

C=C1C(=O)O[C@@H]2C[C@@]3(C)CCC[C@H](C)C3=C[C@H]12 [alantolactone]
inhibitory effect on NanoBiT interaction signal (in words) [3]: very minor or no effects | CC50 at 7 days (in vitro): 23 ± 5 µM | EC50 (HCMV AD169-GFP; [5]): 3.2 ± 1.3 µM | inhibitory effect on NanoBiT interaction signal (in words) [4]: very minor or no effects
